Test results from ChEMBL document CHEMBL1122135, “Modifications of primaquine as antimalarials. 3. 5-Phenoxy derivatives of primaquine” (J Med Chem, 1982).

Columns and labels:
Plasmodium cynomolgi [1] = assay: Cures in Plasmodium cynomolgi infected rhesus monkey at 0.5 mg/kg; n=2; format: functional
Plasmodium cynomolgi [2] = assay: Cures in Plasmodium cynomolgi infected rhesus monkey at 10 mg/kg, n=1; format: functional
Plasmodium cynomolgi [3] = assay: Cures in Plasmodium cynomolgi infected rhesus monkey at 0.25 mg/kg, n=1; format: functional
Plasmodium cynomolgi [4] = assay: Cures in Plasmodium cynomolgi infected rhesus monkey at 0.75 mg/kg, n=6; format: functional
Plasmodium cynomolgi [5] = assay: Cures in Plasmodium cynomolgi infected rhesus monkey at 1 mg/kg, n=3; format: functional
Mus musculus [6] = organism: Mus musculus; assay: Number of mice (Mus musculus) survived after 60 days of post infection with Plasmodium berghei; format: functional
Mus musculus [7] = assay: Antimalarial activity was determined in Plasmodium berghei infected mice (Mus musculus) at 20 mg/kg dose; format: functional; parameters: unit not given beside the values
Mus musculus [8] = assay: (§1) Antimalarial activity was determined in Plasmodium berghei infected mice (Mus musculus) at 320 mg/kg dose; format: functional; parameters: unit not given beside the values
Mus musculus [9] = assay: Antimalarial activity was determined in Plasmodium berghei infected mice (Mus musculus) at 40 mg/kg dose; format: functional; parameters: unit not given beside the values
Mus musculus [10] = assay: Antimalarial activity was determined in Plasmodium berghei infected mice (Mus musculus) at 80 mg/kg dose; format: functional
Mus musculus [11] = assay: Antimalarial activity was determined in Plasmodium berghei infected mice (Mus musculus) at 160 mg/kg dose; format: functional
Plasmodium cynomolgi [12] = assay: Cures in Plasmodium cynomolgi infected rhesus monkey at 1 mg/kg, n=1; format: functional
Mus musculus [13] = assay: Antimalarial activity was determined in Plasmodium berghei infected mice (Mus musculus) at 640 mg/kg dose; format: functional
Plasmodium cynomolgi [14] = assay: Cures in Plasmodium cynomolgi infected rhesus monkey at 3.16 mg/kg, n=2; format: functional
Mus musculus [15] = assay: Number of mice (Mus musculus) survived after 60 days of post infection with Plasmodium berghei at a dose of 40 mg/kg; format: functional
Mus musculus [16] = assay: Number of mice (Mus musculus) survived after 60 days of post infection with Plasmodium berghei at a dose of 80 mg/kg; format: functional
Mus musculus [17] = assay: Number of mice (Mus musculus) survived after 60 days of post infection with Plasmodium berghei at a dose of 160 mg/kg; format: functional
Mus musculus [18] = assay: Number of mice (Mus musculus) survived after 60 days of post infection with Plasmodium berghei at a dose of 20 mg/kg; format: functional
Mus musculus [19] = assay: Number of toxic death was determined in Plasmodium berghei infected mice (Mus musculus) at 320 mg/kg dose; format: ADME, organism-based; parameters: dose 320 mg/kg; conditions: in vivo
Mus musculus [20] = assay: Number of toxic death was determined in Plasmodium berghei infected mice (Mus musculus) at 640 mg/kg dose; format: ADME, organism-based; parameters: dose 640 mg/kg; conditions: in vivo
Mus musculus [21] = assay: Antimalarial activity was determined in Plasmodium berghei infected mice (Mus musculus) at 10 mg/kg dose; format: functional
Mus musculus [22] = assay: Number of mice (Mus musculus) survived after 60 days of post infection with Plasmodium berghei at a dose of 640 mg/kg; format: functional
Mus musculus [23] = assay: Number of mice (Mus musculus) survived after 60 days of post infection with Plasmodium berghei at a dose of 320 mg/kg; format: functional
Plasmodium cynomolgi [24] = assay: Cures in Plasmodium cynomolgi infected rhesus monkey at 3.16 mg/kg, n=1; format: functional
Plasmodium cynomolgi [25] = assay: Cures in Plasmodium cynomolgi infected rhesus monkey at 0.5 mg/kg, n=1; format: functional
Mus musculus [26] = assay: Number of mice (Mus musculus) survived after 60 days of post infection with Plasmodium berghei at a dose of 10 mg/kg; format: functional
Plasmodium cynomolgi [27] = assay: Cures in Plasmodium cynomolgi infected rhesus monkey at 0.25 mg/kg, n=5; format: functional
Plasmodium cynomolgi [28] = assay: Cures in Plasmodium cynomolgi infected rhesus monkey at 0.125 mg/kg, n=1; format: functional
Mus musculus [29] = assay: as §1; format: functional
Plasmodium cynomolgi [30] = assay: Cures in Plasmodium cynomolgi infected rhesus monkey at 1 mg/kg, n=2; format: functional
Plasmodium cynomolgi [31] = assay: Cures in Plasmodium cynomolgi infected rhesus monkey at 0.316 mg/kg, n=4; format: functional
Plasmodium cynomolgi [32] = assay: Cures in Plasmodium cynomolgi infected rhesus monkey at 0.316 mg/kg, n=2; format: functional
Plasmodium cynomolgi [33] = assay: Number of cures in Plasmodium cynomolgi infected rhesus monkey at 0.25 mg/kg, n=8; format: functional
Plasmodium cynomolgi [34] = assay: Cures in Plasmodium cynomolgi infected rhesus monkey at 0.125 mg/kg; n=5; format: functional
Plasmodium cynomolgi [35] = assay: Cures in Plasmodium cynomolgi infected rhesus monkey at 0.5 mg/kg, n=5; format: functional
Plasmodium cynomolgi [36] = assay: Cures in Plasmodium cynomolgi infected rhesus monkey at 0.75 mg/kg, n=9; format: functional
Plasmodium cynomolgi [37] = assay: Cures in Plasmodium cynomolgi infected rhesus monkey at 0.5 mg/kg, n=12; format: functional
Mus musculus [38] = assay: Number of toxic death was determined in Plasmodium berghei infected mice (Mus musculus) at 160 mg/kg dose; format: ADME, organism-based; parameters: dose 160 mg/kg; conditions: in vivo

| Structure (SMILES) | Cures (Plasmodium cynomolgi [2]) | Delta MST (Mus musculus [7]) | Delta MST (Mus musculus [8]) | Delta MST (Mus musculus [9]) | Delta MST (Mus musculus [10]) | Delta MST (Mus musculus [11]) | Cures (Plasmodium cynomolgi [12]) | further results |
| --- | --- | --- | --- | --- | --- | --- | --- | --- |
| COc1cc(NC(C)CCCN)c2ncccc2c1Oc1ccc(Cl)cc1 (stereo not given) | 1 | 0.7 | 8.1 | 4.7 | 5.5 | 7.1 |  | Cures (Plasmodium cynomolgi [1]): 0; Cures (Plasmodium cynomolgi [3]): 0; Cures (Plasmodium cynomolgi [4]): 5; Cures (Plasmodium cynomolgi [5]): 3; Cures (Mus musculus [6]): 2 |
| COc1ccc(Oc2c(OC)cc(NC(C)CCCN)c3ncccc23)cc1 (stereo not given) | 1 | 0.4 | 8.6 | 0.4 | 1.6 | 6 | 0 | Cure (Mus musculus [13]): 4 |
| COc1cc(NC(C)CCCN)c2ncccc2c1Oc1ccc(Cl)cc1Cl (stereo not given) | 1 | 0.4 | 4.4 | 0.4 | 0.8 | 2.2 |  | Cures (Plasmodium cynomolgi [14]): 2; Cures (Plasmodium cynomolgi [5]): 0; Delta MST (Mus musculus [13]): 10.4 |
| COc1cc(NC(C)CCCN)c2nccc(C)c2c1Oc1ccccc1 (stereo not given) |  |  |  |  |  |  |  | Cures (Mus musculus [15]): 3; Cures (Mus musculus [16]): 4; Cures (Mus musculus [17]): 4; Cures (Mus musculus [18]): 4; Toxic deaths (Mus musculus [19]): 3; Toxic deaths (Mus musculus [20]): 2; Delta MST (Mus musculus [21]): 8.7 |
| COc1cc(NC(C)CCCN)c2nccc(C)c2c1Oc1cc(C(F)(F)F)cc(C(F)(F)F)c1 (stereo not given) |  | 4.3 |  |  |  |  |  | Cures (Mus musculus [15]): 3; Cures (Mus musculus [22]): 5; Cures (Mus musculus [16]): 5; Cures (Mus musculus [17]): 5; Cures (Mus musculus [23]): 5; Delta MST (Mus musculus [21]): 1.7 |
| COc1cc(NC(C)CCCN)c2ncccc2c1Oc1cc(C(F)(F)F)cc(C(F)(F)F)c1 (stereo not given) | 1 | 0.7 | 6.3 | 0.3 | 0.3 | 1.5 | 0 | Cures (Plasmodium cynomolgi [24]): 1; Delta MST (Mus musculus [13]): 7.9 |
| COc1cc(NC(C)CCCN)c2ncccc2c1Oc1ccc(OC(F)(F)F)cc1 (stereo not given) | 1 | -0.3 | 0.7 | -0.3 | -0.3 | 0.5 | 0 | Toxic deaths (Mus musculus [20]): 1 |
| COc1cc(NC(C)CCCN)c2ncccc2c1Oc1ccc(NC(C)=O)cc1 (stereo not given) |  |  |  |  |  |  | 0 | Cures (Plasmodium cynomolgi [25]): 0 |
| COc1cc(NC(C)CCCN)c2nccc(C)c2c1Oc1ccc(F)c(C(F)(F)F)c1 (stereo not given) |  |  |  |  |  |  |  | Cures (Mus musculus [15]): 5; Cures (Mus musculus [22]): 5; Cures (Mus musculus [16]): 5; Cures (Mus musculus [26]): 1; Cures (Mus musculus [17]): 5; Cures (Mus musculus [18]): 1; Cures (Mus musculus [23]): 5 |
| COc1cc(NC(C)CCCN)c2ncccc2c1Oc1cccc(C(F)(F)F)c1 (stereo not given) |  | 0.5 | 13.5 | 1.3 | 4.1 | 7.1 | 1 | Cures (Plasmodium cynomolgi [1]): 2; Cures (Plasmodium cynomolgi [27]): 3; Cures (Plasmodium cynomolgi [28]): 0; Cures (Mus musculus [13]): 5 |
| COc1cc(NC(C)CCCN)c2ncc(C)cc2c1Oc1ccc(F)c(C(F)(F)F)c1 (stereo not given) |  | 5.9 | 4 | 9.9 | 4 | 5 |  | Toxic deaths (Mus musculus [20]): 1 |
| COc1cc(NC(C)CCCN)c2ncccc2c1Oc1ccc(Cl)c(Cl)c1 (stereo not given) | 1 | 1.2 |  | 0.8 | 0.4 | 6 |  | Cures (Plasmodium cynomolgi [14]): 2; Cures (Plasmodium cynomolgi [5]): 1; Cures (Mus musculus [29]): 1; Cures (Mus musculus [13]): 1 |
| COc1cc(NC(C)CCCN)c2ncccc2c1Oc1ccccc1 (stereo not given) |  | 0.3 | 7.5 | 1.5 | 1.7 | 5.1 |  | Cures (Mus musculus [6]): 2 |
| COc1cc(NC(C)CCCN)c2nccc(C)c2c1 (stereo not given) |  |  | 10 |  |  | 9 |  | Cures (Plasmodium cynomolgi [30]): 2; Cures (Plasmodium cynomolgi [31]): 0; Toxic deaths (Mus musculus [20]): 1 |
| COc1cc(NC(C)CCCN)c2ncccc2c1Oc1ccc(F)c(C(F)(F)F)c1 (stereo not given) |  | -0.2 | 12.2 | 0.8 | 3.4 | 4.6 | 1 | Cures (Plasmodium cynomolgi [32]): 2; Cures (Mus musculus [13]): 2 |
| COc1cc(NC(C)CCCN)c2ncccc2c1Oc1ccc(F)cc1 (stereo not given) |  |  | 8.9 | 2.1 | 5.7 | 7.5 |  | Cures (Plasmodium cynomolgi [33]): 3; Cures (Plasmodium cynomolgi [34]): 0; Cures (Plasmodium cynomolgi [35]): 5; Cures (Mus musculus [6]): 5 |
| COc1cc(NC(C)CCCN)c2ncccc2c1 (stereo not given) [PRIMAQUINE] |  | 4 |  | 5 | 9.4 |  |  | Cures (Plasmodium cynomolgi [32]): 0; Cures (Plasmodium cynomolgi [33]): 0; Cures (Plasmodium cynomolgi [36]): 9; Cures (Plasmodium cynomolgi [37]): 10; Toxic deaths (Mus musculus [38]): 2; Toxic deaths (Mus musculus [19]): 5; Toxic deaths (Mus musculus [20]): 5 |
